From patent US8829034B2, “Compounds which modulate the CB2 receptor” (Boehringer Ingerlheim International GmbH, priority 2006, dated 2014)
Where two headings read alike, the source gives them in different places.

Target: T1, human CB2R (Homo sapiens, UniProt P34972)
T1 construct: host or cells: CHO cells
Assay: CB2R mediated modulation of cAMP synthesis
Format: cell-based
Details: for agonistic activity: found through the use of the above described assays
Protocol: B. CB2R Mediated Modulation of cAMP Synthesis:
CHO cells expressing human CB2R (Euroscreen) were plated at a density of 5000 cells per well in 384 well plates and incubated overnight at 37° C. After removing the media, the cells were treated with test compounds diluted in stimulation buffer containing 1 mM IBMX, 0.25% BSA and 10 uM Forskolin. The assay was incubated for 30 minutes at 37° C. Cells were lysed and the cAMP concentration was measured using DiscoverX-XS cAMP kit, following the manufacturer's protocol. In this setting, agonists will decrease forskolin induced production of cAMP while inverse agonists will further increase forskolin induced production of cAMP. EC50 of agonists were calculated as follows. The maximal amount of cAMP produced by forskolin compared to the level of cAMP inhibited by 1 uM CP55940 is defined as 100%. The EC50 value of each test compound was determined as the concentration at which 50% of the forskolin-stimulated cAMP synthesis was inhibited. Data was analyzed using a four-parameter logistic model. (Model 205 of XLfit 4.0).

[1] = CHO cells expressing human CB2R, inhibition of forskolin-stimulated cAMP synthesis, compounds having agonist activity, read-out: CB2 EC50

T1 sequence (P34972 whole entry): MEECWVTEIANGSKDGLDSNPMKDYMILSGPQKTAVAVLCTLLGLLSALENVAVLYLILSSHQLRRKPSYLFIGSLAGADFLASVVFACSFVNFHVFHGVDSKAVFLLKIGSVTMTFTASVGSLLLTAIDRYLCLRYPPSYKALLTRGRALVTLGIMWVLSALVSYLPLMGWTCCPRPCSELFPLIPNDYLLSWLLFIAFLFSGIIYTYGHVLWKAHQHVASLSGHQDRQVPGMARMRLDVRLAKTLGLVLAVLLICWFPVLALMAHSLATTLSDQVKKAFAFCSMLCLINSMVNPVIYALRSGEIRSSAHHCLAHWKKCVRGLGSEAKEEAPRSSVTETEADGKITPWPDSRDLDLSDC

Row | SMILES | agonistic activity | EC50 | EC50 [1]
1 | CC(C)(C)c1cc(NC(=O)C2(S(=O)(=O)CC3CCOCC3)CCC2)on1 [1-(Tetrahydro-pyran-4-ylmethanesulfonyl)-cyclobutanecarboxylic acid (3-tert-butyl-isoxazol-5-yl)-amide] | agonistic activity | 6.2 nM | –
2 | CC(C)(C)c1csc(NC(=O)C2(S(=O)(=O)C3CCCCC3)CCC2)n1 [1-Cyclohexanesulfonyl-cyclobutanecarboxylic acid (4-tert-butyl-thiazol-2-yl)-amide] | agonistic activity | 11.7 nM | –
3 | CC(C)(C)c1cc(NC(=O)C2(S(=O)(=O)C3CCCCC3)CCC2)no1 [1-Cyclohexanesulfonyl-cyclobutanecarboxylic acid (5-tert-butyl-isoxazol-3-yl)-amide] | agonistic activity | 0.5 nM | –
4 | CC(=O)N1CCCC(CS(=O)(=O)C(C)(C)C(=O)Nc2cc(C(C)(C)C)on2)C1 (centres unmarked) [2-(1-Acetyl-piperidin-3-ylmethanesulfonyl)-N-(5-tert-butyl-isoxazol-3-yl)-2-methyl-propionamide] | agonistic activity | – | –
5 | CC(C)(C)C(=O)CS(=O)(=O)C(C)(C)C(=O)Nc1ccc(C(F)(F)F)cn1 [2-(3,3-Dimethyl-2-oxo-butane-1-sulfonyl)-2-methyl-N-(5-trifluoromethyl-pyridin-2-yl)-propionamide] | agonistic activity | 41.5 nM | –
6 | CCC(C)S(=O)(=O)C(C)(C)C(=O)Nc1cc(C(C)(C)C)no1 (centres unmarked) [2-(Butane-2-sulfonyl)-N-(3-tert-butyl-isoxazol-5-yl)-2-methyl-propionamide] | agonistic activity | 3.3 nM | –
7 | CCC(C)S(=O)(=O)C(C)(C)C(=O)Nc1nc(C(C)(C)C)cs1 (centres unmarked) [2-(Butane-2-sulfonyl)-N-(4-tert-butyl-thiazol-2-yl)-2-methyl-propionamide] | agonistic activity | – | 14.4 nM
8 | CCC(C)S(=O)(=O)C(C)(C)C(=O)Nc1cc(C(C)(C)C)nn1C (centres unmarked) [2-(Butane-2-sulfonyl)-N-(5-tert-butyl-2-methyl-2H-pyrazol-3-yl)-2-methyl-propionamide] | agonistic activity | – | –
9 | CCC(C)S(=O)(=O)C(C)(C)C(=O)Nc1cc(C(C)(C)C)on1 (centres unmarked) [2-(Butane-2-sulfonyl)-N-(5-tert-butyl-isoxazol-3-yl)-2-methyl-propionamide] | agonistic activity | – | 18.7 nM
10 | CC(C)(C(=O)Nc1ccc(C(F)(F)F)cn1)S(=O)(=O)CC1CCC1 [2-Cyclobutylmethanesulfonyl-2-methyl-N-(5-trifluoromethyl-pyridin-2-yl)-propionamide] | agonistic activity | – | –
11 | CC(C)(C(=O)Nc1ccc(C(F)(F)F)cn1)S(=O)(=O)C1CCCCCC1 [2-Cycloheptanesulfonyl-2-methyl-N-(5-trifluoromethyl-pyridin-2-yl)-propionamide] | agonistic activity | 7.1 nM | –
12 | CC(C)(C(=O)Nc1ccc(C(F)(F)F)cn1)S(=O)(=O)C1CCCCC1 [2-Cyclohexanesulfonyl-2-methyl-N-(5-trifluoromethyl-pyridin-2-yl)-propionamide] | agonistic activity | 11.8 nM | –
13 | CC(C)(C(=O)Nc1ccc(C(F)(F)F)cn1)S(=O)(=O)CC1CCCCC1 [2-Cyclohexylmethanesulfonyl-2-methyl-N-(5-trifluoromethyl-pyridin-2-yl)-propionamide] | agonistic activity | 15.4 nM | –
14 | CC(C)(C(=O)Nc1nnc(-c2ccccc2)[nH]1)S(=O)(=O)C1CCCC1 [2-Cyclopentanesulfonyl-2-methyl-N-(5-phenyl-4H-1,2,4-triazol-3-yl)-propionamide] | agonistic activity | 3.8 nM | –
15 | CC(C)(C(=O)Nc1ccc(C(F)(F)F)cn1)S(=O)(=O)C1CCCC1 [2-Cyclopentanesulfonyl-2-methyl-N-(5-trifluoromethyl-pyridin-2-yl)-propionamide] | agonistic activity | – | –
16 | CC(C)CCS(=O)(=O)C(C)(C)C(=O)Nc1ccc(C(F)(F)F)cn1 [2-Methyl-2-(3-methyl-butane-1-sulfonyl)-N-(5-trifluoromethyl-pyridin-2-yl)-propionamide] | agonistic activity | 19.9 nM | –

Now from value to molecule, other results behind:

Row | agonistic activity | SMILES | EC50 | EC50 [1]
17 | agonistic activity | CCC(C)S(=O)(=O)C(C)(C)C(=O)Nc1ccc(C(F)(F)F)cn1 (centres unmarked) [2-(Butane-2-sulfonyl)-2-methyl-N-(5-trifluoromethyl-pyridin-2-yl)-propionamide] | – | –
18 | agonistic activity | Cn1nc(-c2ccccc2)cc1NC(=O)C(C)(C)S(=O)(=O)C1CCCC1 [2-Cyclopentanesulfonyl-2-methyl-N-(2-methyl-5-phenyl-2H-pyrazol-3-yl)-propionamide] | – | –
19 | agonistic activity | CC(C)(C(=O)Nc1cc(C(F)(F)F)ccn1)S(=O)(=O)C1CCCC1 [2-Cyclopentanesulfonyl-2-methyl-N-(4-trifluoromethyl-pyridin-2-yl)-propionamide] | – | –
20 | agonistic activity | CC(C)(C(=O)Nc1nc(C(F)(F)F)cs1)S(=O)(=O)C1CCCC1 [2-Cyclopentanesulfonyl-2-methyl-N-(4-trifluoromethyl-thiazol-2-yl)-propionamide] | – | –
21 | agonistic activity | CC(C)(C(=O)Nc1ccc(C(F)(F)F)cn1)S(=O)(=O)CC1CC1 [2-Cyclopropylmethanesulfonyl-2-methyl-N-(5-trifluoromethyl-pyridin-2-yl)-propionamide] | – | –
22 | agonistic activity | CC(C)(C)S(=O)(=O)C(C)(C)C(=O)Nc1cc(C(F)(F)F)ccn1 [2-Methyl-2-(2-methyl-propane-2-sulfonyl)-N-(4-trifluoromethyl-pyridin-2-yl)-propionamide] | – | –
23 | agonistic activity | CC(C)(C)S(=O)(=O)C(C)(C)C(=O)Nc1cccc(C(F)(F)F)n1 [2-Methyl-2-(2-methyl-propane-2-sulfonyl)-N-(6-trifluoromethyl-pyridin-2-yl)-propionamide] | – | –
24 | agonistic activity | CC(C)(C(=O)Nc1ccc(C(F)(F)F)cn1)S(=O)(=O)CC1CCNCC1 [2-Methyl-2-(piperidin-4-ylmethanesulfonyl)-N-(5-trifluoromethyl-pyridin-2-yl)-propionamide] | – | –
25 | agonistic activity | CCCS(=O)(=O)C(C)(C)C(=O)Nc1nc2c(s1)CCCC2 [2-Methyl-2-(propane-1-sulfonyl)-N-(4,5,6,7-tetrahydro-benzothiazol-2-yl)-propionamide] | – | –
26 | agonistic activity | CCCS(=O)(=O)C(C)(C)C(=O)Nc1nc(-c2ccncc2)cs1 [2-Methyl-2-(propane-1-sulfonyl)-N-(4-pyridin-4-yl-thiazol-2-yl)-propionamide] | – | –
27 | agonistic activity | CCCS(=O)(=O)C(C)(C)C(=O)Nc1cc(C(F)(F)F)ccn1 [2-Methyl-2-(propane-1-sulfonyl)-N-(4-trifluoromethyl-pyridin-2-yl)-propionamide] | – | –
28 | agonistic activity | CCCS(=O)(=O)C(C)(C)C(=O)Nc1nc(C(F)(F)F)cs1 [2-Methyl-2-(propane-1-sulfonyl)-N-(4-trifluoromethyl-thiazol-2-yl)-propionamide] | – | –
29 | agonistic activity | CCCS(=O)(=O)C(C)(C)C(=O)Nc1ccc(C(F)(F)F)cn1 [2-Methyl-2-(propane-1-sulfonyl)-N-(5-trifluoromethyl-pyridin-2-yl)-propionamide] | – | –
30 | agonistic activity | CCCS(=O)(=O)C(C)(C)C(=O)Nc1ccc2ccccc2n1 [2-Methyl-2-(propane-1-sulfonyl)-N-quinolin-2-yl-propionamide] | – | –
31 | agonistic activity | CCCS(=O)(=O)C(C)(C)C(=O)Nc1cnc2ccccc2c1 [2-Methyl-2-(propane-1-sulfonyl)-N-quinolin-3-yl-propionamide] | – | –
32 | agonistic activity | CC(C)S(=O)(=O)C(C)(C)C(=O)Nc1nc2c(s1)CCCC2 [2-Methyl-2-(propane-2-sulfonyl)-N-(4,5,6,7-tetrahydro-benzothiazol-2-yl)-propionamide] | – | –
33 | agonistic activity | CC(C)S(=O)(=O)C(C)(C)C(=O)Nc1nc(-c2ccccn2)cs1 [2-Methyl-2-(propane-2-sulfonyl)-N-(4-pyridin-2-yl-thiazol-2-yl)-propionamide] | – | –
34 | agonistic activity | CC(C)S(=O)(=O)C(C)(C)C(=O)Nc1nc(-c2cccnc2)cs1 [2-Methyl-2-(propane-2-sulfonyl)-N-(4-pyridin-3-yl-thiazol-2-yl)-propionamide] | – | –
35 | agonistic activity | CC(C)S(=O)(=O)C(C)(C)C(=O)Nc1nc(-c2ccncc2)cs1 [2-Methyl-2-(propane-2-sulfonyl)-N-(4-pyridin-4-yl-thiazol-2-yl)-propionamide] | – | –
36 | agonistic activity | CC(C)S(=O)(=O)C(C)(C)C(=O)Nc1cccc(C(F)(F)F)n1 [2-Methyl-2-(propane-2-sulfonyl)-N-(6-trifluoromethyl-pyridin-2-yl)-propionamide] | – | –
37 | agonistic activity | CC(C)S(=O)(=O)C(C)(C)C(=O)Nc1ccc2ccccc2n1 [2-Methyl-2-(propane-2-sulfonyl)-N-quinolin-2-yl-propionamide] | – | –
38 | agonistic activity | CC(C)S(=O)(=O)C(C)(C)C(=O)Nc1cnc2ccccc2c1 [2-Methyl-2-(propane-2-sulfonyl)-N-quinolin-3-yl-propionamide] | – | –
